Like-named read-outs stand apart in the source and are kept apart here. Some results are limits rather than exact numbers.

The source of these data is patent US20230271965A1, “BICYCLIC HETEROARENES AND METHODS OF THEIR USE” (Kineta, Inc., priority 2020, published 2023).

Assay [1] has as its target T1, full-length human PIKFYVE (GST-PIKFYVE) (Homo sapiens, UniProt Q9Y2I7, L932S/Q1183K/Q995L/S1033A/S696N/T998S).
T1 construct: A full-length human PIKFYVE [1-2098 (end) amino acids; purchased Carna Biosciences; host or cells: baculovirus expression system
Description: PIKfyve biochemical assay (ADP-Glo Kinase assay, Carna Biosciences). The protocol:
PIKfyve Biochemical Assay. The biochemical PIKFyve inhibition assays were run by Carna Biosciences according to proprietary methodology based on the Promega ADP-Glo™ Kinase assay. […] GST-PIKFYVE was purified by using glutathione sepharose chromatography and used in an ADP-Glo™ Kinase assay (Promega). Reactions were set up by adding the test compound solution, substrate solution, ATP solution and kinase solution, each at 4×final concentrations. Reactions were prepared with assay buffer (50 mM MOPS, 1 mM DTT, pH7.2), mixed, and incubated in black 384 well polystyrene plates for 1 hour at room temperature. ADP-Glo™ reagent was then added for 40 minutes, followed by kinase detection reagent for an additional 40 minutes. The kinase activity was evaluated by detecting relative light units on a luminescence plate reader. Samples were run in duplicate from 10 μM to 3 nM. […] IC50 values were calculated from concentration vs % inhibition curves by fitting to a four-parameter logistic curve.
The biochemical PIKFyve inhibition assays were run by Carna Biosciences according to proprietary methodology based on the Promega ADP-Glo™ Kinase assay. […] GST-PIKFYVE was purified by using glutathione sepharose chromatography and used in an ADP-Glo™ Kinase assay (Promega).
Reactions were set up by adding the test compound solution, substrate solution, ATP solution and kinase solution, each at 4×final concentrations. Reactions were prepared with assay buffer (50 mM MOPS, 1 mM DTT, pH7.2), mixed, and incubated in black 384 well polystyrene plates for 1 hour at room temperature. ADP-Glo™ reagent was then added for 40 minutes, followed by kinase detection reagent for an additional 40 minutes. The kinase activity was evaluated by detecting relative light units on a luminescence plate reader. Samples were run in duplicate from 10 uM to 3 nM. […] IC50 values were calculated from concentration vs % inhibition curves by fitting to a four-parameter logistic curve.
(ADP-Glo turns the ADP formed in a reaction into a luminescent signal.)

Assay [2] deals with PIKFYVE TDP-43 yeast strain. Description: Propidium iodide viability assay, PIKFYVE TDP-43 yeast strain. It is filed as cell-based. To be noted: Saccharomyces cerevisiae; reduction in PI-positive cells, 24 hours, values plotted in FIG. 7. The source says: Generation of TDP-43 yeast model expressing human PIKfyve. Human PIKFYVE (“entry clone”) was cloned into pAG416GPDccdB (“destination vector”) according to standard Gateway cloning protocols (Invitrogen, Life Technologies). The resulting pAG416GPD-PIKFYVE plasmids were amplified in E. coli and plasmid identity confirmed by restriction digest and Sanger sequencing. Lithium acetate/polyethylene glycol-based transformation was used to introduce the above PIKFYVE plasmid into a BY4741 yeast strain auxotrophic for the ura3 gene and deleted for two transcription factors that regulate the xenobiotic efflux pumps, a major efflux pump, and FAB1, the yeast ortholog of PIKFYVE (MATa, snq2::KILeu2; pdr3::KIura3; pdr1::NATMX; fab1::G418^R, his3; leu2; ura3; met15; LYS2+) (FIG. 2).
Transformed yeast were plated on solid agar plates with complete synthetic media lacking uracil (CSM-ura) and containing 2% glucose. Individual colonies harboring the control or PIKFYVE TDP-43 plasmids were recovered. A plasmid containing wild-type TDP-43 under the transcriptional control of the GAL1 promoter and containing the hygromycin-resistance gene as a selectable marker was transformed into the fab1::G418^R pAG416GPD-PIKFYVE yeast strain (FIG. 1). Transformed yeast were plated on CSM-ura containing 2% glucose and […] after overnight recovery in media lacking antibiotic. Multiple independent isolates were further evaluated for cytotoxicity and TDP-43 expression levels.
Viability Assay. A control yeast strain with the wild-type yeast FAB1 gene and TDP-43 (“FAB1 TDP-43”, carries empty pAG416 plasmid), and the “PIKFYVE TDP-43” yeast strain, were assessed for toxicity using a propidium iodide viability assay. Both yeast strains were transferred from solid CSM-ura/2% glucose agar plates into 3 mL of liquid CSM-ura/2% glucose media for 6-8 hours at 30° C. with aeration. Yeast cultures were then diluted to an optical density at 600 nm wavelength (OD600) of 0.005 in 3 mL of CSM-ura/2% raffinose and grown overnight at 30° C. with aeration to an OD600 of 0.3-0.8. Log-phase overnight cultures were diluted to OD600 of 0.005 in CSM-ura containing either 2% raffinose or galactose and 150 μL dispensed into each well of a flat bottom 96-well plates. Compounds formulated in 100% dimethyl sulfoxide (DMSO) were serially diluted in DMSO and 1.5 μL diluted compound transferred to the 96-well plates using a multichannel pipet. Wells containing DMSO alone were also evaluated as controls for compound effects. Tested concentrations ranged from 15 μM to […]. Cultures were immediately mixed to ensure compound distribution and covered plates incubated at 30° C. for 24 hours in a stationary, humified incubator.
Upon the completion of incubation, cultures were assayed for viability using propidium iodide (PI) to stain for dead/dying cells. A working solution of PI was made where, for each plate, 1 μL of 10 mM PI was added to 10 mL of CSM-ura (raffinose or galactose). The final PI solution (50 μL/well) was dispensed into each well of a new round bottom 96-well plate. The overnight 96-well assay plate was then mixed with a multichannel pipet and 50 μL transferred to the PI-containing plate. This plate was then incubated for 30 minutes at 30° C. in the dark. A benchtop flow cytometer (Miltenyi MACSquant) was then used to assess red fluorescence ([…]), forward scatter, and side scatter (with following settings: gentle mix, high flow rate, fast measurement, 10,000 events). Intensity histograms were then gated for “PI-positive” or “PI-negative” using the raffinose and galactose cultures treated with DMSO as controls. The DMSO controls for raffinose or galactose-containing cultures were used to determine the window of increased cell death and this difference set to 100. All compounds were similarly gated and then compared to this maximal window to establish the percent reduction in PI-positive cells.

Where [3] appears, read: values plotted in FIG. 7, read-out: PIKFYVE Biochemistry (IC50).
Setting [4] is: ADP-Glo, full-length human PIKFYVE, read-out: hPIKfyve IC50.
The mark [5] stands for this setting: ADP-Glo with full-length PIKfyve, read-out: PIKfyve IC50.

T1 sequence (Q9Y2I7 whole entry S696N/L932S/Q995L/T998S/S1033A/Q1183K): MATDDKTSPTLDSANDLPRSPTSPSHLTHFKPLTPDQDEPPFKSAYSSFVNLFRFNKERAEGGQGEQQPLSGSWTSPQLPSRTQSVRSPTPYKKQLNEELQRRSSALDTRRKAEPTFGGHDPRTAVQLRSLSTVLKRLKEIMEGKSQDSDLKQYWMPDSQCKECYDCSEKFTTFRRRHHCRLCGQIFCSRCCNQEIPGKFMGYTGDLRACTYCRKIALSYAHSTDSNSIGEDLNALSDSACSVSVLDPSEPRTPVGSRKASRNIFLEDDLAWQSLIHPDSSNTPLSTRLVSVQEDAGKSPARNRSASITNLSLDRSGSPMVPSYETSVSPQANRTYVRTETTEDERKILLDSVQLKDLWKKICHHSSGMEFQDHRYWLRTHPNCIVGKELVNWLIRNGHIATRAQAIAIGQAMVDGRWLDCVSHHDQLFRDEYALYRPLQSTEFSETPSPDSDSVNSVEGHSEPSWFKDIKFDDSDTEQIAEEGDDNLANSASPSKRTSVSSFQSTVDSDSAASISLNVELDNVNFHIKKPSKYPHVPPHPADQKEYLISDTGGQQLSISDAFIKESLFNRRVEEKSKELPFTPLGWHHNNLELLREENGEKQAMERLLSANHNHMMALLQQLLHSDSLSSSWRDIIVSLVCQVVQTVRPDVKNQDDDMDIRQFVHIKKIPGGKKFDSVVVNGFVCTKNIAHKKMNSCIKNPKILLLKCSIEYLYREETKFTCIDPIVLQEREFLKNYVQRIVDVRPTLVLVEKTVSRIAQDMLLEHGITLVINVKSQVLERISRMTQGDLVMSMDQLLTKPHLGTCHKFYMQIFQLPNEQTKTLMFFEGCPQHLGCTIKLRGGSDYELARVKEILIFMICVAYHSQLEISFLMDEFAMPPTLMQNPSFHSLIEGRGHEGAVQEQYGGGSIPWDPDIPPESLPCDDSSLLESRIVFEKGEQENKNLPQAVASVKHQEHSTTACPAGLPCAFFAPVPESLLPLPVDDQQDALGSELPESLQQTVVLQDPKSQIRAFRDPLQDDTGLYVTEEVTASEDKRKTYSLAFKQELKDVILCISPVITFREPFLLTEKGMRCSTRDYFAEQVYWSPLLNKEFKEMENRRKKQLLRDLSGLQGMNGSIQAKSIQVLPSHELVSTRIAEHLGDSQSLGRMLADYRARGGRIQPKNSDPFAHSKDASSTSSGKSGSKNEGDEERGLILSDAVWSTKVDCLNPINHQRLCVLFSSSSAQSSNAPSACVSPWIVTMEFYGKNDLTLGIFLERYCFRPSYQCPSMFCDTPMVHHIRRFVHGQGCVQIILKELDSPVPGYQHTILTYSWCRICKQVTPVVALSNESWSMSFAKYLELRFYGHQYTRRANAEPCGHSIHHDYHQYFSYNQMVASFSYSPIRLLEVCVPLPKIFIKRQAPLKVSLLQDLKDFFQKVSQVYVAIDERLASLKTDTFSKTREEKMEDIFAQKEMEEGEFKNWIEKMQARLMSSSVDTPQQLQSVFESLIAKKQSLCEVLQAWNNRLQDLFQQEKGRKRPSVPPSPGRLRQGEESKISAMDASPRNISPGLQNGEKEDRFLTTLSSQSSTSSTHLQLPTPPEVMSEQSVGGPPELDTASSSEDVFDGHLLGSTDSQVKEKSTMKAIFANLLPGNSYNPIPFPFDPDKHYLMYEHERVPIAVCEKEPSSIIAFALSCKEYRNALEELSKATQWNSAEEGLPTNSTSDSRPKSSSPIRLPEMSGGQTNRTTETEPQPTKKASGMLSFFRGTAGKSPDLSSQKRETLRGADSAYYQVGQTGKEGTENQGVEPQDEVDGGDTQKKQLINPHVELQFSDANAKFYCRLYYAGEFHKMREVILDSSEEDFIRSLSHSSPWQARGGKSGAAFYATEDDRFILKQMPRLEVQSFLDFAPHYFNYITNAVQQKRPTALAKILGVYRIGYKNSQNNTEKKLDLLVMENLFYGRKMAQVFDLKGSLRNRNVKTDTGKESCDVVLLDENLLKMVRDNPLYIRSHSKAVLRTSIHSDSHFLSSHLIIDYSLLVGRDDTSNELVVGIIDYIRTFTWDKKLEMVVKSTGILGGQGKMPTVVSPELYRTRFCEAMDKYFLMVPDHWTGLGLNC

For orientation: IC50 means the concentration at which inhibition is half-maximal. As to `COc1nc(N2CCOCC2)nc2c1CCN2c1ccccc1` [drawing 274], the IC50 in assay [1] (setting [3]) was found to be 85 nM; in assay [2] it was 4.27 µM.

In the case of `c1ccc(N2CCc3c(OCC4CCCO4)nc(N4CCOCC4)nc32)cc1` (stereo not drawn) [Compound 8], the half-maximal inhibitory concentration (IC50) in assay [1] (setting [4]) lay in the range of 10 to 100 nM.

With `CC(C)(C)OC(=O)N1CCC(OCc2nc(N3CCOCC3)nc3c2CCN3c2cccnc2)C1` (stereo not drawn) [Compound 15, tert-butyl 3-((2-morpholino-7-(pyridin-3-yl)-6,7-dihydro-5H-pyrrolo[2,3-d]pyrimidin-4-yl)methoxy)pyrrolidine-1-carboxylate], the half-maximal inhibitory concentration (IC50) in assay [1] (setting [4]) lay in the range of 1000 to 10000 nM.

Consider `Cc1cccc(/C=N/Nc2cc(N3CC4CC3CO4)n3nc(-c4ccncc4)cc3n2)c1` (stereo not drawn), for which, in assay [1] (setting [5]), the IC50 is 12 nM.

`Fc1cccc(-c2ccnn2-c2nc(N3CCOCC3)c3ncccc3n2)c1`: the 50% inhibitory concentration (IC50) in assay [2] turned out to be 5.75 µM.

Regarding `O=c1ccn(Cc2nc(N3CCOCC3)cc(-n3nccc3-c3ccccc3)n2)cc1`, in assay [2], the IC50 is more than 15 µM.

Turning to `c1cc(COc2nc(N3CCOCC3)cc(-n3cc4c(n3)COCC4)n2)ccn1`, the IC50 in assay [1] (setting [3]) was 1340 nM; in assay [2], more than 15 µM.

Regarding `Cc1cccc(/C=N/Nc2nc(N3CCOCC3)c3nc(-c4ccncc4)n(C)c3n2)c1` [drawing 266], the 50% inhibitory concentration (IC50) in assay [1] (setting [3]) was 5 nM; in assay [2], 4.72 µM.

In the case of `c1cncc(N2CCc3c(COC4CCNC4)nc(N4CCOCC4)nc32)c1` (stereo not drawn) [Compound 13, 4-(7-(pyridin-3-yl)-4-((pyrrolidin-3-yloxy)methyl)-5,6-dihydro-5H-pyrrolo[2,3-d]pyrimidin-2-yl)morpholine], the IC50 in assay [1] (setting [4]) was 100 to 1000 nM.

Turning to `c1ccc(N2CCc3c(NC4COC4)nc(N4CCOCC4)nc32)cc1` [Compound 48, 2-morpholino-N-(oxetan-3-yl)-7-phenyl-6,7-dihydro-5H-pyrrolo[2,3-d]pyrimidin-4-amine], the IC50 in assay [1] (setting [4]) is 1000 to 10000 nM.

Take `c1ccc(N2CCc3c(OCc4cccnc4)nc(N4CCOCC4)nc32)cc1` [drawing 275]: the concentration for half-maximal inhibition (IC50) in assay [1] (setting [3]) was 42 nM; in assay [2], 2.69 µM.

Regarding `c1cc(-c2cc3nc(C4CNC4)cc(N4CCOCC4)n3n2)ccn1`, the values for the IC50 in assay [1] (setting [3]) and in assay [2] were 8020 nM and more than 15 µM, respectively.

`CN1CCCC(COc2nc(N3CCOCC3)nc3c2CCN3c2ccccc2)C1` (stereo not drawn) [Compound 7]: the IC50 in assay [1] (setting [4]) was 1000 to 10000 nM.

On to `Oc1cc(-c2ccccc2)nn1-c1cc(N2CCOCC2)n2nc(-c3ccncc3)nc2n1`, for which the IC50 in assay [1] (setting [3]) came to 18 nM; in assay [2] it was 0.693 µM.

Regarding `Oc1cc(C2CCOCC2)nn1-c1cc(N2CCOCC2)n2nc(-c3ccncc3)cc2n1`, the 50% inhibitory concentration (IC50) in assay [1] (setting [3]) was 253 nM; in assay [2], 9.11 µM.

For `c1ccc(-c2cccc(-c3cc(N4CCOCC4)n4nc(-c5ccncc5)cc4n3)n2)cc1`, the IC50 in assay [1] (setting [3]) turned out to be 14 nM; in assay [2], 0.23 µM.

Turning to `c1ccc(Cc2ncccc2-c2cc(N3CCOCC3)n3nc(-c4ccncc4)cc3n2)cc1`, the IC50 is 1090 nM in assay [1] (setting [3]) and more than 15 µM in assay [2].

In the case of `O=c1ccc(-c2ccccc2)nn1-c1cc(N2CCOCC2)n2nc(-c3ccncc3)cc2n1`, the IC50 in assay [1] (setting [3]) was 295 nM; in assay [2], more than 15 µM.

For `c1cc(-c2nc3nc(N4CCOCC4)cc(N4CCOCC4)n3n2)ccn1`, the IC50 in assay [1] (setting [3]) was 9200 nM; in assay [2], more than 15 µM.

With `Cn1c(-c2ccncc2)nc2c(N3CCOCC3)ncnc21` [drawing 253], in assay [1] (setting [5]), the IC50 was 640 nM.

As for `Cc1cccc(/C=N/Nc2nc(N3CCOCC3)c3nc(-c4ccncc4)n(C)c3n2)c1` [drawing 252], in assay [1] (setting [5]), the concentration for half-maximal inhibition (IC50) worked out at 4.9 nM.

Take `CN(C)c1cc(N2CCOCC2)n2nc(-c3ccncc3)cc2n1`: in assay [1] (setting [5]), the IC50 is 2010 nM.

For the compound `Cn1c(-c2ccncc2)nc2c(N3CCOCC3)ncnc21` [drawing 265], the values for the IC50 in assay [1] (setting [3]) and in assay [2] were 640 nM and more than 15 µM, respectively.

Take `c1ccc(Cc2nc(N3CCOCC3)nc3c2CCN3c2cccnc2)nc1` [Compound 38]: the IC50 in assay [1] (setting [4]) lay in the range of 100 to 1000 nM.

On to `Cc1cccc(/C=N/Nc2nc(N3CCOCC3)c3ncccc3n2)c1`, for which the results for the half-inhibitory concentration (IC50) in assay [1] (setting [3]) and in assay [2] were 18 nM and 8.21 µM, respectively.

Regarding `Cc1cccc(/C=N/Nc2cc(N3CCOCC3)nc(OCCc3ccc(CN)cc3)n2)c1`, the IC50 was 7 nM in assay [1] (setting [3]) and 1.12 µM in assay [2].

Turning to `c1ccc(C2CN(c3cc(N4CCOCC4)n4nc(-c5ccncc5)cc4n3)CCN2)cc1` (stereo not drawn), the 50% inhibitory concentration (IC50) was 2660 nM in assay [1] (setting [3]) and more than 15 µM in assay [2].

On to `c1ccc(-c2ccnc(-c3cc(N4CCOCC4)nc(OCc4ccncc4)n3)n2)cc1`, for which the IC50 was determined as 32 nM in assay [1] (setting [3]) and 1.45 µM in assay [2].

On to `O=c1c(CCOc2cccnc2)cc2ncncc2n1-c1ccccc1`, for which the IC50 in assay [2] is more than 15 µM.

With `c1cncc(-c2nc(N3CCOCC3)nc3c2CCN3c2ccc3c(c2)OCCO3)c1` [Compound 64, 4-(7-(2,3-dihydrobenzo[b][1,4]dioxin-6-yl)-4-(pyridin-3-yl)-6,7-dihydro-5H-pyrrolo[2,3-d]pyrimidin-2-yl)morpholine], in assay [1] (setting [4]), the IC50 fell in the range of 10 to 100 nM.

With `c1ccc(N2CCc3c(OCc4ccncc4)nc(N4CCOCC4)nc32)cc1` [Compound 4], the IC50 in assay [1] (setting [4]) fell in the range of 10 to 100 nM.

`c1ccc(-c2ccnn2-c2cc(N3CCOCC3)n3nc(-c4ccncc4)nc3n2)cc1`: the IC50 was 767 nM in assay [1] (setting [3]) and more than 15 µM in assay [2].

On to `c1ccc(-c2nc(-c3cc(N4CCOCC4)nc(OCc4ccncc4)n3)no2)cc1`, for which the IC50 in assay [2] is more than 15 µM.

For `c1ccc(N2CCc3c(Cc4ccccn4)nc(N4CCOCC4)nc32)cc1` [Compound 37, 4-(7-phenyl-4-(pyridin-2-ylmethyl)-6,7-dihydro-5H-pyrrolo[2,3-d]pyrimidin-2-yl)morpholine], the IC50 in assay [1] (setting [4]) lay within 10 to 100 nM.
